ChEMBL document CHEMBL2216751, “PI3Kδ and PI3Kγ as targets for autoimmune and inflammatory diseases” (J Med Chem, 2012)
Values belong to the molecule of their own block, whether it stands above or below them.

What was measured:
[1] = biological target: T1, Phosphatidylinositol 4,5-bisphosphate 3-kinase catalytic subunit delta isoform (Homo sapiens, UniProt O00329); conditions: for IC50: read-out: IC50
T1 sequence (O00329 whole entry): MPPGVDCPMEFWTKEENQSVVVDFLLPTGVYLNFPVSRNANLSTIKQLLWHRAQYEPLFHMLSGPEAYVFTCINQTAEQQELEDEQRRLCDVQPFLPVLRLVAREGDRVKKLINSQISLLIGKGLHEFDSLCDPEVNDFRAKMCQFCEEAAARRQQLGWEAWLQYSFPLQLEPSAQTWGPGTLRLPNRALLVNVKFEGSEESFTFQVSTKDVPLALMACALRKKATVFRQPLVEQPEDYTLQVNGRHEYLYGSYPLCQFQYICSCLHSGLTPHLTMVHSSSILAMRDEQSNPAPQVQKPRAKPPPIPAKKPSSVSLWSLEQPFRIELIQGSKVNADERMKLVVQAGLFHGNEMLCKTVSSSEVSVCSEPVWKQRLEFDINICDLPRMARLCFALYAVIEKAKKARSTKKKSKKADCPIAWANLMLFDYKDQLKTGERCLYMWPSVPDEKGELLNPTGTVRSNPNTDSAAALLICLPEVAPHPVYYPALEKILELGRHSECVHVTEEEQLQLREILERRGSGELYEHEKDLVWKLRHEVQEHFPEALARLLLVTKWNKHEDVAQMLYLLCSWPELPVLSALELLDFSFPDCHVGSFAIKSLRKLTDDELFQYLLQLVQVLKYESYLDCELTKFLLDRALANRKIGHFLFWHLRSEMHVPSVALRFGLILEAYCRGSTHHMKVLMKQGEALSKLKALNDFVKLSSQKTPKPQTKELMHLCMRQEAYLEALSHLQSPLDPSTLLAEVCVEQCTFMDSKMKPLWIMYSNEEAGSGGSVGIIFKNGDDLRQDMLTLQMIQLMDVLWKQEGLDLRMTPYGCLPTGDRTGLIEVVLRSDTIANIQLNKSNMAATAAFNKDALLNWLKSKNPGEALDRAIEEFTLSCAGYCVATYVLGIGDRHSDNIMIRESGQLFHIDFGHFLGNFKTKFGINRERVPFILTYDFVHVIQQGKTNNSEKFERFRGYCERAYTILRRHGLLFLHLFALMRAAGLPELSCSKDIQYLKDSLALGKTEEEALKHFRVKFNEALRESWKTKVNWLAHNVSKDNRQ

Homo sapiens [2] = organism: Homo sapiens; experiment: Antitumor activity in Non-Hodgkin Lymphoma patient assessed as clinical response rate at 50 to 350 mg, bid; assay type: functional
Homo sapiens [3] = experiment: Toxicity in healthy human administered bid up to 7 days; assay type: organism-based; conditions: in vivo, 168 h
Homo sapiens [4] = organism: Homo sapiens; experiment: Toxicity in healthy human; assay type: organism-based; conditions: in vivo
Mus musculus = experiment: Antiinflammatory activity in LPS-induced COPD BALB/c mouse model assessed as reduction in pulmonary neutrophilia at 0.3 mg/kg, ip qd; assay type: functional; design: scale not given: the % may be the effect or the level left; conditions: route intraperitoneal
[5] = biological target: Phosphatidylinositol 4,5-bisphosphate 3-kinase catalytic subunit gamma isoform (Homo sapiens, UniProt P48736); experiment: Inhibition of PI3Kgamma-mediated Akt phosphorylation in T cells by flow cytometry; assay type: cell-based, T-cell
[6] = biological target: T1, Phosphatidylinositol 4,5-bisphosphate 3-kinase catalytic subunit delta isoform; experiment: Inhibition of PI3Kdelta in human whole blood assessed as inhibition of CD69 production in B lymphocyte by immunoassay
[7] = biological target: T1, Phosphatidylinositol 4,5-bisphosphate 3-kinase catalytic subunit delta isoform; experiment: Inhibition of PI3Kdelta-mediated AKT phosphorylation in human Ramos cells by ELISA; assay type: cell-based
[8] = Oral bioavailability in Han-Wistar rat; assay type: ADME, organism-based; conditions: in vivo

Chain of Phosphatidylinositol 4,5-bisphosphate 3-kinase catalytic subunit gamma isoform (P48736 whole entry, canonical isoform): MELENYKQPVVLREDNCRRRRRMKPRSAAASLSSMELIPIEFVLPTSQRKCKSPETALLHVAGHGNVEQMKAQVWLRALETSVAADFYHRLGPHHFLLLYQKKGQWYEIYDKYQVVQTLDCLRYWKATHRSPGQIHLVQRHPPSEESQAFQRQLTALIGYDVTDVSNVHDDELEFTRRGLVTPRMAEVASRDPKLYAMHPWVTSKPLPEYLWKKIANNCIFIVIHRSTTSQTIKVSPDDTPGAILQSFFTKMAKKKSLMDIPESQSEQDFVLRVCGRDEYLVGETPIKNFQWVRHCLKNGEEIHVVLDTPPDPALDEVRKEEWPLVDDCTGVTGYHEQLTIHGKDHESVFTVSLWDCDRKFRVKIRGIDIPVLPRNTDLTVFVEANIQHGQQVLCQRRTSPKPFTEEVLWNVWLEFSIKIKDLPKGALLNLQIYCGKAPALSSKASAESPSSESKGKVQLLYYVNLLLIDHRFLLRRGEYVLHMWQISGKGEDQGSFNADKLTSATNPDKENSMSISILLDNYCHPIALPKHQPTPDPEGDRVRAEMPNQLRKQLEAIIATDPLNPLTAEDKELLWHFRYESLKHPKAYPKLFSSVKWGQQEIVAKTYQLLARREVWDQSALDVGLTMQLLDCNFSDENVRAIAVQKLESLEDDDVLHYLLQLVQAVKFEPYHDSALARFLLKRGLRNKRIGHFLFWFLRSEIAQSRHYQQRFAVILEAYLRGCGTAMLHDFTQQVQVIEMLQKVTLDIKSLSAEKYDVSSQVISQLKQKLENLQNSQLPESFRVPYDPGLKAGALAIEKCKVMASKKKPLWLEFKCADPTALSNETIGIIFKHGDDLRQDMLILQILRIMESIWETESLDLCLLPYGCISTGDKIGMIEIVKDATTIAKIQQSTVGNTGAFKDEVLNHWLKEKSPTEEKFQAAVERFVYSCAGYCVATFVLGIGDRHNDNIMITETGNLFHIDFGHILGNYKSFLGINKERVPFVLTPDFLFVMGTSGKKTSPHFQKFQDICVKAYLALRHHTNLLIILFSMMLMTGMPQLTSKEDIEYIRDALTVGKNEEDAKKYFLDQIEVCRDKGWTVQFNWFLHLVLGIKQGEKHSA

IC50 [1]: 260 nM
Structure (SMILES): c1ccc2c(N3CCOCC3)nc(-c3cccc4[nH]ccc34)cc2c1

IC50 [1]: < 100 nM
Structure (SMILES): CNc1nc(C)c2cc(-c3cc(O)cc(F)c3)ccc2n1

IC50 [1]: 5.9 nM
Structure (SMILES): COc1ccc(NC(=O)c2c(C)oc3ncn(CC(C)C)c(=O)c23)cc1

IC50 [1]: 6 nM
Structure (SMILES): C[C@H](Nc1ncnc2[nH]cnc12)c1nc2ccsc2c(=O)n1-c1ccccc1

IC50 [1]: < 50 nM
Structure (SMILES): Cc1cccc2cc(Cn3cnc4c(N)ncnc43)c(N(C)CC3CCCN3C)nc12 (configuration not stated)

pIC50 [1]: >= 5
Structure (SMILES): C[C@@H]1CN(Cc2nnc(-c3cc(-c4cccc5[nH]ccc45)cc4[nH]ncc34)o2)C[C@H](C)O1

Structure (SMILES): CC[C@H](Nc1ncnc2[nH]cnc12)c1nc2cccc(F)c2c(=O)n1-c1ccccc1 [IDELALISIB]
Activity (Homo sapiens [2]): 56%
MTD (Homo sapiens [3]): 200 mg
MTD (Homo sapiens [4]): 400 mg

Structure (SMILES): C[C@@H]1C[C@H]2[C@@H]3CCC4=CC(=O)C=C[C@]4(C)[C@@]3(F)[C@@H](O)C[C@]2(C)[C@@]1(O)C(=O)CO [DEXAMETHASONE]
Activity (Mus musculus): 70%

IC50 [1]: 12 nM
Structure (SMILES): Nc1ncc(-c2ccc(Cl)c(S(=O)(=O)Nc3ccccc3)c2)nc1C(=O)c1cccnc1

pIC50 [1]: >= 5
IC50 [5]: ≤ 1000 nM
Structure (SMILES): Cc1nc(C(=O)Nc2cc(-c3ccnc4[nH]ccc34)cc3[nH]ncc23)cs1

IC50 [6]: 17.8 nM
Structure (SMILES): Cc1nc2ccccc2n1-c1nc(N2CCOCC2)c2oc(CN3CCN(C(C)(C)C(N)=O)CC3)cc2n1

IC50 [1]: < 100 nM
IC50 [7]: < 100 nM
Structure (SMILES): CC(Nc1ncnc2[nH]cnc12)c1cc(Cl)c2cncn2c1-c1cccc(F)c1 (configuration not stated)

IC50 [1]: 40 nM
Structure (SMILES): C[C@@H](c1nc2ccsc2c(=O)n1-c1ccccc1)n1cnc2c(N)ncnc21

IC50 [1]: 13 nM
Structure (SMILES): CC(=O)Nc1nc(C)c(-c2csc(C(=O)Nc3nnn[nH]3)n2)s1

IC50 [1]: > 100 nM
Structure (SMILES): CN(C)CCCOc1cccc2c1nc(C(F)F)n2-c1nc(OC2CCN(C(=O)CCl)CC2)nc(N2CCOCC2)n1

IC50 [1]: 3 nM
Structure (SMILES): COc1cc2c(CC3CCCC(C)C3)c(C(=O)Nc3nn[nH]n3)sc2cc1C (configuration not stated)

IC50 [1]: < 100 nM
Structure (SMILES): Cc1cccc2cc(C(C)Nc3ncnc4[nH]cnc34)nc(OC3CCN(C)CC3)c12 (configuration not stated)

pIC50 [1]: >= 5
Structure (SMILES): O=C(CN1CCOCC1)Nc1cc(-c2cc(F)cc3[nH]ccc23)cc2[nH]ncc12

bioavailability [8]: 66%
Structure (SMILES): Cc1ccc(-c2ccc3c(c2)N(C2=NC4CC(C)(C)NC(=O)C4S2)CCO3)nn1 (configuration not stated)

pIC50 [1]: >= 5
IC50 [5]: ≤ 10000 nM
Structure (SMILES): O=C(Nc1cc(-c2cnc3[nH]ncc3c2)cc2[nH]ncc12)c1cccc(CN2CCS(=O)(=O)CC2)n1

IC50 [6]: 3 nM
Structure (SMILES): CC(C)c1nc2ccccc2n1-c1nc(N2CCOCC2)c2nc(OC3CN(C4CCS(=O)(=O)CC4)C3)n(C)c2n1

IC50 [1]: < 100 nM
Structure (SMILES): O=C(NCC(=O)N1CCCC1)Nc1nc2ccc(-c3cncc(C(F)(F)F)c3)cn2n1

Ki [1]: 2.85 nM
Structure (SMILES): Cc1c(-c2ccccn2)nc2cc(F)cc(F)c2c1Nc1cc(N2CCOCC2)cnc1-c1ccc(O)cc1

Ki [1]: 3 nM
Structure (SMILES): CCN(CC)C(=O)c1cccc(Nc2nc3ccc(-c4cncc(OC)c4)cc3s2)n1

IC50 [1]: 2100 nM
Structure (SMILES): Cc1oc2ncn(CC(C)C)c(=O)c2c1C(=O)NCc1ccccc1

Ki [1]: 2.26 nM
Structure (SMILES): C[C@H](Nc1ncnc(N)c1C#N)c1nc2ccc(F)cc2c(NCCS(C)(=O)=O)c1-c1ccccc1

IC50 [1]: < 50 nM
Structure (SMILES): Cn1c(C(=O)NCC(F)(F)F)nc2c(N3CCC(n4c(=O)[nH]c5ncccc54)CC3)ncnc21
